From ChEMBL document CHEMBL1155111, “Identification of a potent, selective, and orally active leukotriene a4 hydrolase inhibitor with anti-inflammatory activity” (J Med Chem, 2008)
≈ marks a conversion by molar mass, not a printed value.

Tests used:
[1] = Half life in Beagle dog plasma at 2 mg/kg, iv; format: ADME, organism-based, Canis lupus familiaris; design: dose 2 mg/kg, route intravenous
[2] = Cmax in rat at 2 mg/kg, iv; format: ADME, organism-based; design: dose 2 mg/kg, route intravenous; conditions: in vivo
[3] = Bioavailability in Beagle dog at 10 mg/kg, po; format: ADME, organism-based, Canis lupus familiaris; conditions: in vivo
[4] = Clearance in rat at 2 mg/kg, iv; format: ADME, organism-based; design: dose 2 mg/kg, route intravenous; conditions: in vivo
[5] = AUC (0 to infinity) in rat at 10 mg/kg, po; format: ADME, organism-based; design: time infinity, dose 10 mg/kg, route oral; conditions: plasma
[6] = Bioavailability in rat at 10 mg/kg, po; format: ADME, organism-based; conditions: in vivo
[7] = AUC (0 to infinity) in rat at 2 mg/kg, iv; format: ADME, organism-based; design: time infinity, dose 2 mg/kg, route intravenous; conditions: plasma
[8] = Tmax in rat at 10 mg/kg, po; format: ADME, organism-based; design: dose 10 mg/kg, route oral; conditions: in vivo
[9] = Cmax in Beagle dog at 2 mg/kg, iv; format: ADME, organism-based, Canis lupus familiaris; design: dose 2 mg/kg, route intravenous; conditions: in vivo
[10] = Terminal elimination half life in rat plasma at 10 mg/kg, po; format: ADME, organism-based; design: dose 10 mg/kg, route oral
[11] = Tmax in Beagle dog at 10 mg/kg, po; format: ADME, organism-based, Canis lupus familiaris; design: dose 10 mg/kg, route oral; conditions: in vivo
[12] = Half life in Beagle dog plasma at 10 mg/kg, po; format: ADME, organism-based, Canis lupus familiaris; design: dose 10 mg/kg, route oral
[13] = Cmax in rat at 10 mg/kg, po; format: ADME, organism-based; design: dose 10 mg/kg, route oral; conditions: in vivo
[14] = Volume of distribution at steady state in Beagle dog at 2 mg/kg, iv; format: ADME, organism-based, Canis lupus familiaris; design: dose 2 mg/kg, route intravenous; conditions: in vivo, read-out: Vdss
[15] = AUC (0 to infinity) in Beagle dog at 10 mg/kg, po; format: ADME, organism-based, Canis lupus familiaris; design: time infinity, dose 10 mg/kg, route oral; conditions: plasma
[16] = Clearance in Beagle dog at 2 mg/kg, iv; format: ADME, organism-based, Canis lupus familiaris; design: dose 2 mg/kg, route intravenous; conditions: in vivo
[17] = Volume of distribution at steady state in rat at 2 mg/kg, iv; format: ADME, organism-based; design: dose 2 mg/kg, route intravenous; conditions: in vivo, read-out: Vdss
[18] = Cmax in Beagle dog at 10 mg/kg, po; format: ADME, organism-based, Canis lupus familiaris; design: dose 10 mg/kg, route oral; conditions: in vivo
[19] = Half life in rat plasma at 2 mg/kg, iv; format: ADME, organism-based; design: dose 2 mg/kg, route intravenous
[20] = AUC (0 to infinity) in Beagle dog at 2 mg/kg, iv; format: ADME, organism-based, Canis lupus familiaris; design: time infinity, dose 2 mg/kg, route intravenous; conditions: plasma
[21] = Tmax in rat at 30 mg/kg, po; format: ADME, organism-based; design: dose 30 mg/kg, route oral; conditions: in vivo
[22] = AUC (0 to infinity) in rat at 3 mg/kg, iv; format: ADME, organism-based; design: time infinity, dose 3 mg/kg, route intravenous; conditions: plasma
[23] = Metabolic stability in rat liver S9 fraction assessed as elimination half life; format: ADME, subcellular
[24] = Metabolic stability in human liver microsomes assessed as elimination half life; format: ADME, Microsome
[25] = Half life in Beagle dog plasma at 3 mg/kg, iv; format: ADME, organism-based, Canis lupus familiaris; design: dose 3 mg/kg, route intravenous
[26] = Clearance in rat at 3 mg/kg, iv; format: ADME, organism-based; design: dose 3 mg/kg, route intravenous; conditions: in vivo
[27] = Clearance in Beagle dog at 3 mg/kg, iv; format: ADME, organism-based, Canis lupus familiaris; design: dose 3 mg/kg, route intravenous; conditions: in vivo
[28] = AUC (0 to infinity) in Beagle dog at 3 mg/kg, iv; format: ADME, organism-based, Canis lupus familiaris; design: time infinity, dose 3 mg/kg, route intravenous; conditions: plasma
[29] = Terminal elimination half life in rat plasma at 30 mg/kg, po; format: ADME, organism-based; design: dose 30 mg/kg, route oral
[30] = AUC (0 to infinity) in Beagle dog at 30 mg/kg, po; format: ADME, organism-based, Canis lupus familiaris; design: time infinity, dose 30 mg/kg, route oral; conditions: plasma
[31] = Half life in Beagle dog plasma at 30 mg/kg, po; format: ADME, organism-based, Canis lupus familiaris; design: dose 30 mg/kg, route oral
[32] = Metabolic stability in dog liver S9 fraction assessed as elimination half life; format: ADME, subcellular, Canis lupus familiaris
[33] = Chemical stability assessed as half life of hydrolysis at pH 2; format: physicochemical; conditions: buffer
[34] = Cmax in Beagle dog at 3 mg/kg, iv; format: ADME, organism-based, Canis lupus familiaris; design: dose 3 mg/kg, route intravenous; conditions: in vivo
[35] = Metabolic stability in mouse liver S9 fraction assessed as elimination half life; format: ADME, subcellular
[36] = AUC (0 to infinity) in rat at 30 mg/kg, po; format: ADME, organism-based; design: time infinity, dose 30 mg/kg, route oral; conditions: plasma
[37] = Volume of distribution at steady state in rat at 3 mg/kg, iv; format: ADME, organism-based; design: dose 3 mg/kg, route intravenous; conditions: in vivo, read-out: Vdss
[38] = Half life in rat plasma at 3 mg/kg, iv; format: ADME, organism-based; design: dose 3 mg/kg, route intravenous
[39] = Bioavailability in rat at 30 mg/kg, po; format: ADME, organism-based; conditions: in vivo
[40] = Tmax in Beagle dog at 30 mg/kg, po; format: ADME, organism-based, Canis lupus familiaris; design: dose 30 mg/kg, route oral; conditions: in vivo
[41] = Solubility at pH 7.4; format: physicochemical; conditions: buffer
[42] = Chemical stability assessed as half life of hydrolysis at pH 7.4; format: physicochemical; conditions: buffer
[43] = Volume of distribution at steady state in Beagle dog at 3 mg/kg, iv; format: ADME, organism-based, Canis lupus familiaris; design: dose 3 mg/kg, route intravenous; conditions: in vivo, read-out: Vdss
[44] = Cmax in rat at 3 mg/kg, iv; format: ADME, organism-based; design: dose 3 mg/kg, route intravenous; conditions: in vivo
[45] = Bioavailability in Beagle dog at 30 mg/kg, po; format: ADME, organism-based, Canis lupus familiaris; conditions: in vivo
[46] = Cmax in rat at 30 mg/kg, po; format: ADME, organism-based; design: dose 30 mg/kg, route oral; conditions: in vivo
[47] = Cmax in Beagle dog at 30 mg/kg, po; format: ADME, organism-based, Canis lupus familiaris; design: dose 30 mg/kg, route oral; conditions: in vivo

O=C(CO)NC1CCN(Cc2ccc(Oc3nc4ccccc4s3)cc2)CC1
half-life [1]: 216 min | Cmax [2]: 2200 nM | bioavailability [3]: 150% | clearance [4]: 3 mL/min | AUC(0-inf) [5]: 33 µM·h | bioavailability [6]: 65% | AUC(0-inf) [7]: 10 µM·h | Tmax [8]: 5.3 h | Cmax [9]: 2800 nM | half-life [10]: 336 min | Tmax [11]: 1 h | half-life [12]: 414 min | Cmax [13]: 2200 nM | Vd [14]: 3.2 L/kg | AUC(0-inf) [15]: 60.3 µM·h | clearance [16]: 93.3 mL/min | Vd [17]: 2.5 L/kg | Cmax [18]: 26 µM | half-life [19]: 210 min | AUC(0-inf) [20]: 8 µM·h

c1ccc2oc(Oc3ccc(OCCN4CCCCC4)cc3)nc2c1
Tmax [21]: 4.6 h | AUC(0-inf) [22]: 4.8 µM·h | half-life [23]: > 100 min | half-life [24]: > 100 min | half-life [25]: 60 min | clearance [26]: 9.5 mL/min | clearance [27]: 13 mL/min | AUC(0-inf) [28]: 3.9 µM·h | half-life [29]: 312 min | AUC(0-inf) [30]: 4.2 µM·h | half-life [31]: 138 min | half-life [32]: 54 min | half-life [33]: 90 min | Cmax [34]: 4.5 µM | half-life [35]: 40 min | AUC(0-inf) [36]: 15 µM·h | Vd [37]: 7 L/kg | half-life [38]: 156 min | bioavailability [39]: 31% | Tmax [40]: 2.3 h | solubility [41]: 160 µg/mL (≈ 473 µM) | half-life [42]: > 1000 min | Vd [43]: 3.2 L/kg | Cmax [44]: 3.8 µM | bioavailability [45]: 11% | Cmax [46]: 1100 nM | Cmax [47]: 1200 nM
